Measured values as given in paper PMC7734590, “Identification of a Selective RelA Inhibitor Based on DSE-FRET Screening Methods” (International Journal of Molecular Sciences, 2020).

What was measured:
[1] = system: PK8 cells; test: Cell viability assay (PrestoBlue), TNF-α-treated PK8 cells; format: cell-based, human; details: TNF-α 50 ng/mL, 48 h
Protocol: The human pancreatic carcinoma cell line PK8 was grown in Roswell Park Memorial Institute 1640 Medium (RPMI) (SIGMA; R8758) supplemented with 10% fetal bovine serum (FBS) at 37 °C with 5% CO2.
Cell viability was measured using the PrestoBlue assay according to the standard protocol (Thermo Fisher Scientific, Waltham, MA, USA: A13261). PK8 cells were cultivated on 96-well plates. After a 48 h treatment with TNF-α (50 ng/mL) in the presence or absence of A55, the culture medium was replaced with fresh medium containing 10% PrestoBlue and incubated for an additional 1 h at 37 °C and 5% CO2. Fluorescence intensity was then measured using a multiplate reader (EnSpire, PerkinElmer, Waltham, MA, USA).

[2] = molecular target: T1, p50 (Homo sapiens, UniProt P19838); test: DSE-FRET p50–DNA binding inhibition; format: biochemical
T1 sequence (P19838 1-433 limits assumed): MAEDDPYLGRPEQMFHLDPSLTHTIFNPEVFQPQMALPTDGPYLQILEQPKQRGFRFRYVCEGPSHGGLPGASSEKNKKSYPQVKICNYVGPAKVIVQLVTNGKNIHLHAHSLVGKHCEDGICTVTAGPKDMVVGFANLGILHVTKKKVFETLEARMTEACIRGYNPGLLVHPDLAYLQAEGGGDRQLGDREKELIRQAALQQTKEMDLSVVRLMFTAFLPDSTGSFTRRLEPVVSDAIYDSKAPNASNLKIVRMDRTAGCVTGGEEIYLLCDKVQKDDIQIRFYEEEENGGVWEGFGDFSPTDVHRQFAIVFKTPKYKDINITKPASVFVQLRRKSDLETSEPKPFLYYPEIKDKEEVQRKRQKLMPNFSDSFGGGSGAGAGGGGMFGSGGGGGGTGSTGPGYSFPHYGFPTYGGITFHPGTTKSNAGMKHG
Protocol: Plate-based (384 scale) DNA-binding experiments were carried out with 0.1 µL of 2 mM or 1 mg/mL compound, 2 µL of 80 nM NF-D1 (consisting of NF-01F and NF-14D), 1 µL of 20 ng/µL poly dI-dC, and 6.9 µL of 3.2 pmol protein in binding buffer (10 mM 4-(2-hydroxyethyl)-1-piperazineethanesulfonic acid (HEPES)–NaOH pH 7.9, 50 mM KCl, 0.1 mM ethylenediaminetetraacetic acid (EDTA), 2.5 mM dithiothreitol (DTT), 10% glycerol, and 0.05% Nonidet P40). The plates were incubated for 30 min at room temperature, after which 10 µL of NF-D2 (consisting of NF-02 and NF-13) was added. The plates were centrifuged at 1000 rpm for 30 s, followed by shaking for 30 s using a plate shaker (Biotec). Fluorescence was measured at 528 nm, after excitation at 485 nm, using a multiplate reader (Biotec) over a period of 60 min.

For `Cc1cc(O)n(CC(=O)O)c(=O)c1C(N)=O` [A55, 2-(3-carbamoyl-6-hydroxy-4-methyl-2-oxopyridin-1(2H)-yl) acetic acid], the “cell proliferation / growth inhibition” value [1] was “enhanced the growth inhibition of TNF-α-treated PK8 cells in a dose-dependent manner” and the IC50 [2] was over 100 µM.
